In patent US8507516B2, “Azabicyclic compounds as alpha-7 nicotinic acetylcholine receptor ligands” (Bristol-Myers Squibb Company, priority 2009, dated 2013):
Like-named read-outs stand apart in the source and are kept apart here.

Molecular target: T1, α-7 nicotinic ACh receptor ion channels expressed in mammalian HEK 293 cells (Rattus norvegicus, UniProt Q05941)
T1 construct: expressed in transfected cells
Test: Ca2+-sensitive, fluorescence-based assay for α-7 nicotinic acetylcholine receptor channel function (FLIPR)
Type: cell-based
Description: II) A Ca^2+-Sensitive, Fluorescence-Based Assay α-7 for Nicotinic Acetylcholine Receptor Channel Function In Mammalian Cells (“FLIPR”).
Lead compounds are evaluated for agonist activity at α-7, α3β4, α4αβ2, and α1β1δ1ε sub-types of nicotinic ACh receptor ion channels expressed in mammalian HEK 293 cells. Agonist potency and efficacy values are determined from kinetic fluorescence Ca^2+ influx measurements made using a 384 well FLIPR (Fluorescence Image Plate Reader). […] In this assay, channel expressing HEK cell lines seeded in 384 well assay plates are loaded with a membrane permeant fluorescent Ca^2+ indicator dye, whose 510 nm green emission signal increases in response to elevation of intracellular Ca^2+ concentration. The basal fluorescence from the cells is monitored in real time, followed by the acute addition of test compounds.
Reagents: The acetomethoxy (AM) ester of the Ca^2+ indicator dye Fluo-4 was obtained from InVitrogen, (Carlsbad, Calif.). Acetylcholine and all buffer constituents were purchased from Sigma Chemical Company, St. Louis, Mo. G418 and Minimal Essential Medium were purchased from InVitrogen Life Technologies, Carlsbad, Calif. Fetal bovine serum was purchased from (InVitrogen, Carlsbad, Calif.).
HEK-293 cells were grown in Minimal Essential Medium containing 10% (v/v) fetal bovine serum at 37° C. in a 5% CO2 incubator. HEK-293 cells stably expressing the ion channels were grown in the same medium with the addition of 500 μg/ml G418.
HEK-293 cells expressing the ion channels of interest were plated in 384 well, black-walled, clear-bottomed, poly-D-lysine coated plates at a density of ˜20,000 cells/well in 20 μl of Minimal Essential Medium containing 10% (v/v) fetal bovine serum and incubated for 2 days at 29° C. in a 5% CO2 incubator. Prior to assay, cells were loaded with the Fluo-4 AM ester. […] Dye loading was allowed to proceed for 90 minutes at room temperature at which time the dye loading solution was removed and replaced with 40 μl/well of Hanks buffer. Cells loaded with dye were loaded onto a FLIPR384 (Molecular Devices, Sunnyvale, Calif.). Fluo-4 dye was excited using the 488 nm line of an argon laser. Emission was filtered using a 540+/−30 nm bandpass filter. For evaluation of the effects of test compounds using the Ca^2+ flux assay, compounds to be tested were provided in assay ready plates. For nicotinic receptor ion channel expressing cells, the assay was initiated by the addition of 20 μl/well of Hanks buffer containing test compounds. For all assays, data were collected at 1 Hz for 10 seconds (baseline), at which time the compound containing stimulus buffers are added, and further measurements collected at 0.33 Hz for 3 min.
The statistical robustness of the nicotinic receptor Ca^2+ flux assays is determined from blanks and totals wells. […] The raw fluorescence units data files generated on the FLIPR plate reader are automatically exported and processed by in-house data analysis tools. The reduced percent activation data for each concentration of test compound are fit using MathIQ fitting engine (ID Business Solutions Limited, Surrey, UK). Data were analyzed by fitting maximum amplitudes of change in fluorescence, for Ca^2+ flux for a given condition of test compound. […] Test compound efficacy values (Ymax values) are expressed relative to a maximal response to acetylcholine in the total wells.

[1] = activity class based on EC50, Ca2+ influx, read-out: FLIPR α7 actvity rating (EC50)
[2] = agonist potency, Ca2+ influx, read-out: FLIPR α7-HI (EC50)
[3] = FLIPR α7-HI (EC50, nM), agonist potency, Ca2+ influx
[4] = FLIPR α7 actvity rating (EC50, nM), activity class based on EC50, Ca2+ influx

T1 sequence (Q05941 23-502): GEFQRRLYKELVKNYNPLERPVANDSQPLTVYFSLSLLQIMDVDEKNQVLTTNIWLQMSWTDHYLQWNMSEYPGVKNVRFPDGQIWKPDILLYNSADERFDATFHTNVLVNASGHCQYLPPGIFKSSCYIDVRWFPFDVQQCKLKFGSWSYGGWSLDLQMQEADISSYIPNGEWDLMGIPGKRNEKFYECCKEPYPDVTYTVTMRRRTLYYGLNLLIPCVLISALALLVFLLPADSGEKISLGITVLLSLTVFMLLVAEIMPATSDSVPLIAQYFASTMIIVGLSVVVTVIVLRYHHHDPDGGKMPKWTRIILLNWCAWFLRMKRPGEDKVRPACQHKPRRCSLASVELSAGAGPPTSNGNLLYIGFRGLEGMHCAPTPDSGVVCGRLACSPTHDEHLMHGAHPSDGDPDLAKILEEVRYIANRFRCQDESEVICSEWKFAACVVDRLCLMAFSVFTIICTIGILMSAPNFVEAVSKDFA

Row | Compound | EC50 [1] [nM] | EC50 [2] [nM] | EC50 [3] [nM] | EC50 [4] [nM] | EC50 (read-out: FLIPR α7 actvity rating (EC50), activity class based on EC50, Ca2+ influx) [nM]
1 | c1ccc2sc(NC3=NC[C@@]4(C[N@]5CCC[C@H]4C5)O3)nc2c1 (relative stereo) [Example 1, (5S*,5′R*)—N-(benzo[d]thiazol-2-yl)-4′H-1-azaspiro[bicyclo[3.2.1]octane-6,5′-oxazol]-2′-amine] | 1000 to 100000 | > 100000 | – | – | –
2 | COc1ccc2nc(NC3=NC[C@@]4(C[N@]5CCC[C@H]4C5)O3)sc2c1 (relative stereo) [Example 2, (5S*,5′R*)—N-(6-methoxybenzo[d]thiazol-2-yl)-4′H-1-azaspiro[bicyclo[3.2.1]octane-6,5′-oxazol]-2′-amine] | 100 to 1000 | 2050 | – | – | –
3 | c1cnc2sc(NC3=NC[C@@]4(C[N@]5CCC[C@H]4C5)O3)nc2c1 (relative stereo) [Example 3, (5S*,5′R*)—N-(thiazolo[5,4-b]pyridin-2-yl)-4′H-1-azaspiro[bicyclo[3.2.1]octane-6,5′-oxazol]-2′-amine] | – | – | 1080 | 100 to 1000 | –
4 | c1cnc2sc(NC3=NC[C@@]4(C[N@@]5CCC[C@@H]4C5)O3)nc2c1 (relative stereo) [Example 5, (5R*,5′R*)—N-(thiazolo[5,4-b]pyridin-2-yl)-4′H-1-azaspiro[bicyclo[3.2.1]octane-6,5′-oxazol]-2′-amine] | – | – | 132 | < 100 | –
5 | c1ccc2cc(NC3=NC[C@@]4(C[N@]5CCC[C@H]4C5)O3)ncc2c1 (single isomer, unassigned) [Example 4, (5S*,5R*)—N-(isoquinolin-3-yl)-4′H-1-azaspiro[bicyclo[3.2.1]octane-6,5′-oxazol]-2′-amine] | – | – | 820 | < 100 | –
6 | c1cnc2sc(NC3=NCC4(CN5CCCC4C5)O3)nc2c1 (single isomer, unassigned) [Example 5a] | – | – | 105 | < 100 | –
7 | c1cnc2sc(NC3=NCC4(CN5CCCC4C5)O3)nc2c1 (single isomer, unassigned) [Example 5b] | – | – | 88 | – | < 100
